Results: patent US20240166635A1, “AMINOHETEROARYL KINASE INHIBITORS” (Anrui Biomedical Technology (Guangzhou) Co.,Ltd., priority 2020, published 2024)
pIC50: −log10 of the molar value.

What was measured:
Format in all cases: biochemical
CDK9/CyclinT1 = CDK9/CyclinT1 (Homo sapiens (Human), UniProt P50750); test: CDK9/CyclinT1 kinase inhibitory activity (Caliper mobility shift); details: read-out: CDK9/Cyclin T1 IC50
CDK2/CyclinE1 = CDK2/CyclinE1 (Homo sapiens (Human), UniProt P24941); test: CDK2/CyclinE1 kinase inhibitory activity (Caliper mobility shift); details: read-out: CDK2/Cyclin El IC50
CDK4/Cyclin D1 = CDK4/Cyclin D1 (Homo sapiens (Human), UniProt P11802); test: CDK4/CyclinD1 kinase inhibitory activity (Caliper mobility shift)
CDK7/CyclinH/MAT1 = CDK7/CyclinH/MAT1 (Homo sapiens (Human), UniProt P50613); test: CDK7/CyclinH/MAT1 kinase inhibitory activity (Caliper mobility shift)
CDK6/CyclinD1 = CDK6/CyclinD1 (Homo sapiens (Human), UniProt Q00534); test: CDK6/CyclinD1 kinase inhibitory activity (Caliper mobility shift); details: read-out: CDK6/Cyclin D1 IC50
CDK1/CyclinB = CDK1/CyclinB (Homo sapiens (Human), UniProt P06493); test: CDK1/CyclinB kinase inhibitory activity (Caliper mobility shift); details: read-out: CDK1/Cyclin B1 IC50
CDK1/CyclinB, sequence (P06493 whole entry): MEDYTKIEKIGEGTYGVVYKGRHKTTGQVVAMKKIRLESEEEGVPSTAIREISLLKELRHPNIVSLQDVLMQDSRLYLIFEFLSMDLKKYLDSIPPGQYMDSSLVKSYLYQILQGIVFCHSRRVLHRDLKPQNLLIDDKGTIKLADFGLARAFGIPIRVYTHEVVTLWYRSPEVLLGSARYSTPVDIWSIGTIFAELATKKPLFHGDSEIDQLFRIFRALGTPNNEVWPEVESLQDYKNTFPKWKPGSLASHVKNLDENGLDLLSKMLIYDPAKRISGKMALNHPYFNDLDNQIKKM
CDK1/CyclinB, sequence (P14635 whole entry partner): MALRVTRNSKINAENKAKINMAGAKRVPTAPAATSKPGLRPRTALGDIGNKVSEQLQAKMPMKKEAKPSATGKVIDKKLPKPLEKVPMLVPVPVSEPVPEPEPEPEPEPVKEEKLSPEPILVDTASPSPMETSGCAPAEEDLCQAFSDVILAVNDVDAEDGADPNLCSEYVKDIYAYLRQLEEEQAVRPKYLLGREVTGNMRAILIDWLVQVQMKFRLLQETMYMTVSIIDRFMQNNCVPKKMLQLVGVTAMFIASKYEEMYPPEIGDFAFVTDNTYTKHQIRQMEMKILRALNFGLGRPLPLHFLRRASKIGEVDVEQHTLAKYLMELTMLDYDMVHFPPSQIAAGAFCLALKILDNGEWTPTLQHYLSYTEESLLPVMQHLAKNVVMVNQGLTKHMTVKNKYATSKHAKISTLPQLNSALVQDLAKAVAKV

CDK7/CyclinH/MAT1, sequence (P50613 whole entry): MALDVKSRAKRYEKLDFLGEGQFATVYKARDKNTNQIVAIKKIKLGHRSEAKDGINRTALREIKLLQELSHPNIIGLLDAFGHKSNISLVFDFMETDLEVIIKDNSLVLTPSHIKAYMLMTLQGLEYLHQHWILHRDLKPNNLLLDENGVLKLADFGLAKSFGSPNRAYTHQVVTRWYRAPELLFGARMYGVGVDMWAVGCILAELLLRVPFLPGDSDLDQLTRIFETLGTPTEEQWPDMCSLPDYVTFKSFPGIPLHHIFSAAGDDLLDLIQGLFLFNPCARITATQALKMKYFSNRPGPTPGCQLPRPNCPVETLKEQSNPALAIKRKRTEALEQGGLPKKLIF
CDK7/CyclinH/MAT1, sequence (P51946 whole entry partner): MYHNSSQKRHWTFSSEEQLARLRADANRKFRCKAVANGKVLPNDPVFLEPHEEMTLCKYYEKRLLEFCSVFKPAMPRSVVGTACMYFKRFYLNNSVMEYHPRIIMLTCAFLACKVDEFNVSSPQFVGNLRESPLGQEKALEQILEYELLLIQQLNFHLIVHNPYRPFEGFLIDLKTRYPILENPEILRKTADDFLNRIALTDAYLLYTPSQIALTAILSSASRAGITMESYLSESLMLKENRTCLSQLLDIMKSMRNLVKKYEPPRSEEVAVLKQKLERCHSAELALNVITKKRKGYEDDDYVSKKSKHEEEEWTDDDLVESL
CDK7/CyclinH/MAT1, sequence (P51948 whole entry partner): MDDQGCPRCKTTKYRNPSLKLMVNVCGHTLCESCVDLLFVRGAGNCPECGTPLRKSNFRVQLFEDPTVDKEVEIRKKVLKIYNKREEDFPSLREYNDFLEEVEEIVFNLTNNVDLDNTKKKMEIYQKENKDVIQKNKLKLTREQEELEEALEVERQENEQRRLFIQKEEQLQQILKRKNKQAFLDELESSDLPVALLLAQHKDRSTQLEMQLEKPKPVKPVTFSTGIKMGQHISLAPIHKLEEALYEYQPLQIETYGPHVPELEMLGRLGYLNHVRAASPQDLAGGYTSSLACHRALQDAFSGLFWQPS
CDK9/CyclinT1, sequence (P50750 whole entry): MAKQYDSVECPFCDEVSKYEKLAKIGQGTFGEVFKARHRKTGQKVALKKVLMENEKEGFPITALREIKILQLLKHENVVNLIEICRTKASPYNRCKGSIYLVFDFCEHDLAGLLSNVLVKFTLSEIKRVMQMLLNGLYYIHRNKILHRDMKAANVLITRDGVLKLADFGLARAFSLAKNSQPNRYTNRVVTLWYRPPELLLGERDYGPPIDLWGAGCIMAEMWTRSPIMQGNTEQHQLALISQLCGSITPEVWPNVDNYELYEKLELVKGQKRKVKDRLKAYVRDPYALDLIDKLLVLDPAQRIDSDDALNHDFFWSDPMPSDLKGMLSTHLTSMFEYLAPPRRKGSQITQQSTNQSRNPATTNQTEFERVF
CDK9/CyclinT1, sequence (O60563 whole entry partner): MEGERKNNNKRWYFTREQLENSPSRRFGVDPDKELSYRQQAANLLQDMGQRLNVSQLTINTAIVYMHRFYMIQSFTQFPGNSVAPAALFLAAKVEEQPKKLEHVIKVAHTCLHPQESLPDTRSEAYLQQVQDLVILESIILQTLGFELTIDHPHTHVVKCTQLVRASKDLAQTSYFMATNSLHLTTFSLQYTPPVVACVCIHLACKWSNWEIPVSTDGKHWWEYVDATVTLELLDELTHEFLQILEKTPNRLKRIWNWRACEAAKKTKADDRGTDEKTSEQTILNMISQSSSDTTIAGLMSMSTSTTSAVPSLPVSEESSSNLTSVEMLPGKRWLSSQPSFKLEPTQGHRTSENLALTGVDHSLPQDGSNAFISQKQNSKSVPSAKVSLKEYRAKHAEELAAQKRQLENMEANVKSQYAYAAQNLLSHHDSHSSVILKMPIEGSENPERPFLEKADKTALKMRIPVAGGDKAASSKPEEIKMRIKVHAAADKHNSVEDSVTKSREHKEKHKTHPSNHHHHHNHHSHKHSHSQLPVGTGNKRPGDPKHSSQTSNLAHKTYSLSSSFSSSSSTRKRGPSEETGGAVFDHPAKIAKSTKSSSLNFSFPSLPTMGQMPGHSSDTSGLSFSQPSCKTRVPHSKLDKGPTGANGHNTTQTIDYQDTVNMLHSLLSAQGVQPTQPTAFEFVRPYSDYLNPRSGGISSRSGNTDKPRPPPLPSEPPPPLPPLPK
CDK4/Cyclin D1, sequence (P11802 whole entry): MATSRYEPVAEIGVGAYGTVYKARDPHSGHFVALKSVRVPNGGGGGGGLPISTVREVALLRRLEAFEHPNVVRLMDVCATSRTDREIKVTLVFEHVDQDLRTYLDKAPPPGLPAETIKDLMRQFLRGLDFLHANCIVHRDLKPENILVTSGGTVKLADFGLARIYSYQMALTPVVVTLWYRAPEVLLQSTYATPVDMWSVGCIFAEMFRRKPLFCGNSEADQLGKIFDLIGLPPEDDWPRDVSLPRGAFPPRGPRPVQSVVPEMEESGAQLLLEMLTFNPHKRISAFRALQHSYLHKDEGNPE
CDK4/Cyclin D1, sequence (P24385 whole entry partner): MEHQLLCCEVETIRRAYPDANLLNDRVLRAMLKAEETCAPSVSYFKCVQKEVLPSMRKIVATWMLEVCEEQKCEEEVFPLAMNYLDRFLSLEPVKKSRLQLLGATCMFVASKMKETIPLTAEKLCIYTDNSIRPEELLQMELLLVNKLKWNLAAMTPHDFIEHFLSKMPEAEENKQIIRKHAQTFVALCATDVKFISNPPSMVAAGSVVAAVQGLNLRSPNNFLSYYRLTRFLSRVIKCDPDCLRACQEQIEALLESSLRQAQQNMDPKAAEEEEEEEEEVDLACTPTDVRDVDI
CDK6/CyclinD1, sequence (Q00534 whole entry): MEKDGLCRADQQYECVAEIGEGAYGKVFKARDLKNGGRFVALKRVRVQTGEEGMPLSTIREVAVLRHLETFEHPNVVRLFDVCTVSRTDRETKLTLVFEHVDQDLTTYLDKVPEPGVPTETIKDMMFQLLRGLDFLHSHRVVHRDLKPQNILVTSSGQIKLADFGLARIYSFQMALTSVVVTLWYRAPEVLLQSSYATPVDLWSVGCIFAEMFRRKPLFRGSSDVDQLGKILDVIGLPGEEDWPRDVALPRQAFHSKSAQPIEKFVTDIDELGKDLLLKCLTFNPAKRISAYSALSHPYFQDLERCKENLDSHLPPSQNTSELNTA
CDK6/CyclinD1, sequence (P24385 whole entry partner): as the sequence (P24385 whole entry partner) above

Structure (SMILES) | pIC50 (CDK9/CyclinT1) | pIC50 (CDK2/CyclinE1) | pIC50 (CDK4/Cyclin D1) | pIC50 (CDK7/CyclinH/MAT1) | pIC50 (CDK6/CyclinD1) | pIC50 (CDK1/CyclinB)
CN1CCC(NS(=O)(=O)c2ccc(Nc3ncc(Cl)c(OC4CCCC4O)n3)cc2)CC1 (single isomer, unassigned) [Example 139b] | ≤ 6.00 | 7.00 to 8.00 | 6.00 to 7.00 | ≤ 6.00 | 6.00 to 7.00 | 6.00 to 7.00
N#Cc1cnc(Nc2ccc(S(N)(=O)=O)cc2)nc1O[C@@H]1CCCC[C@@H]1O (single isomer, unassigned) [Example 2a, cis-4-((5-cyano-4-((2-hydroxycyclohexyl)oxy)pyrimidin-2-yl)amino)benzenesulfonamide] | 6.00 to 7.00 | > 8.00 | 7.00 to 8.00 | ≤ 6.00 | 7.00 to 8.00 | 7.00 to 8.00
Cn1ccc(S(=O)(=O)N2CCC(Nc3ncc(C#N)c(OCC4(C)CCCC4)n3)CC2)n1 [Example 63] | 6.00 to 7.00 | > 8.00 | > 8.00 | 6.00 to 7.00 | > 8.00 | > 8.00
N#Cc1cnc(Nc2ccc(S(N)(=O)=O)cc2)nc1-c1cccc(O)c1 [Example 98] | 7.00 to 8.00 | > 8.00 | 7.00 to 8.00 | ≤ 6.00 | 7.00 to 8.00 | 7.00 to 8.00
CC(C)NS(=O)(=O)c1ccc(Nc2ncc(Cl)c(OC3CCCC3O)n2)cc1 (single isomer, unassigned) [Example 138a] | 6.00 to 7.00 | > 8.00 | 6.00 to 7.00 | 6.00 to 7.00 | 6.00 to 7.00 | 7.00 to 8.00
N#Cc1cnc(Nc2ccc(S(N)(=O)=O)cc2)nc1-c1cccc(F)c1 [Example 95] | – | 7.00 to 8.00 | 6.00 to 7.00 | ≤ 6.00 | ≤ 6.00 | 7.00 to 8.00
[2H]C([2H])([2H])NS(=O)(=O)c1ccc(Nc2ncc(C(=C)F)c(O[C@@H]3CCC[C@@H]3O)n2)cc1 (single isomer, unassigned) [Example 135a, cis-4-((5-(1-fluorovinyl)-4-((2-hydroxycyclopentyl)oxy)pyrimidin-2-yl)amino)-N-(methyl-d3)benzenesulfonamide] | 6.00 to 7.00 | > 8.00 | 6.00 to 7.00 | 6.00 to 7.00 | 6.00 to 7.00 | 7.00 to 8.00
N#Cc1cnc(Nc2ccc(S(N)(=O)=O)cc2)nc1OC1CCCC1O (single isomer, unassigned) [Example 20b] | 6.00 to 7.00 | 7.00 to 8.00 | 6.00 to 7.00 | ≤ 6.00 | 6.00 to 7.00 | 6.00 to 7.00
[2H]C([2H])([2H])NS(=O)(=O)c1ccc(Nc2ncc(C(F)(F)F)c(OC3CCCC3)n2)cc1 [Example 108] | ≤ 6.00 | > 8.00 | 7.00 to 8.00 | ≤ 6.00 | 6.00 to 7.00 | 7.00 to 8.00
Cn1cc(S(=O)(=O)N2CCC(Nc3ncc(C#N)c(O[C@@H]4CCC(F)(F)C[C@]4(C)O)n3)CC2)cn1 (relative stereo) [Example 7b, cis-4-((4,4-difluoro-2-hydroxy-2-methylcyclohexyl)oxy)-2-((1-((1-methyl-1H-pyrazol-4-yl)sulfonyl)piperidin-4-yl)amino)pyrimidine-5-carbonitrile] | – | 7.00 to 8.00 | 6.00 to 7.00 | ≤ 6.00 | 6.00 to 7.00 | –
Cn1cnc(S(=O)(=O)N2CCC(Nc3ncc(C#N)c(OC4CCCC4(C)O)n3)CC2)c1 (single isomer, unassigned) [Example 50b] | – | > 8.00 | 7.00 to 8.00 | ≤ 6.00 | 7.00 to 8.00 | –
[2H]C([2H])([2H])NS(=O)(=O)c1ccc(Nc2ncc(C(F)(F)F)c(OC3CCOCCC3O)n2)cc1 (single isomer, unassigned) [Example 102a, 4-((4-((5-hydroxyoxepan-4-yl)oxy)-5-(trifluoromethyl)pyrimidin-2-yl)amino)-N-(methyl-d3)benzenesulfonamide] | – | > 8.00 | ≤ 6.00 | ≤ 6.00 | ≤ 6.00 | 6.00 to 7.00
CNc1cccc(-c2nc(Nc3ccc(S(N)(=O)=O)cc3)ncc2C#N)c1 [Example 97] | – | 7.00 to 8.00 | 6.00 to 7.00 | ≤ 6.00 | ≤ 6.00 | 6.00 to 7.00
CC1(O)CCCC1Oc1nc(NC2CCN(S(=O)(=O)C(F)(F)F)CC2)ncc1C#N (single isomer, unassigned) [Example 42a] | – | > 8.00 | 7.00 to 8.00 | 6.00 to 7.00 | 7.00 to 8.00 | –
CO[C@H]1C[C@](C)(COc2nc(NC3CCN(S(=O)(=O)c4cnn(C)c4)CC3)ncc2C#N)C1 [Example 64a] | – | > 8.00 | 7.00 to 8.00 | 6.00 to 7.00 | 7.00 to 8.00 | –
Cn1cnc(S(=O)(=O)N2CCC(Nc3ncc(C#N)c(OC4CCCC4(C)O)n3)CC2)n1 (single isomer, unassigned) [Example 51b] | – | 7.00 to 8.00 | 6.00 to 7.00 | ≤ 6.00 | 6.00 to 7.00 | –
CC1(O)CCCC1Oc1nc(NC2CCN(S(=O)(=O)C(F)(F)F)CC2)ncc1C#N (single isomer, unassigned) [Example 42b] | – | 7.00 to 8.00 | 6.00 to 7.00 | ≤ 6.00 | 6.00 to 7.00 | –

More lines, now with the values ahead:

pIC50 (CDK9/CyclinT1) | pIC50 (CDK2/CyclinE1) | pIC50 (CDK4/Cyclin D1) | pIC50 (CDK7/CyclinH/MAT1) | pIC50 (CDK6/CyclinD1) | pIC50 (CDK1/CyclinB) | Structure (SMILES)
6.00 to 7.00 | > 8.00 | 7.00 to 8.00 | ≤ 6.00 | 6.00 to 7.00 | 7.00 to 8.00 | CNS(=O)(=O)c1ccc(Nc2ncc(C#N)c(N3CCCCC3)n2)cc1 [Example 91]
7.00 to 8.00 | > 8.00 | 7.00 to 8.00 | 7.00 to 8.00 | 7.00 to 8.00 | > 8.00 | CC1(O)CCCC1Oc1nc(Nc2ccc(S(N)(=O)=O)cc2)ncc1C1CC1 (single isomer, unassigned) [Example 154a]
7.00 to 8.00 | > 8.00 | 7.00 to 8.00 | ≤ 6.00 | 7.00 to 8.00 | 7.00 to 8.00 | N#Cc1cnc(Nc2ccc(S(N)(=O)=O)cc2)nc1N1CCCCCC1 [Example 68]
6.00 to 7.00 | > 8.00 | 6.00 to 7.00 | 6.00 to 7.00 | 7.00 to 8.00 | 7.00 to 8.00 | [2H]C1([2H])CC(O)C(Oc2nc(Nc3ccc(S(=O)(=O)NC([2H])([2H])[2H])cc3)ncc2C(F)(F)F)C1 (single isomer, unassigned) [Example 110a]
6.00 to 7.00 | > 8.00 | > 8.00 | 6.00 to 7.00 | 7.00 to 8.00 | 7.00 to 8.00 | COCCS(=O)(=O)N1CCC(Nc2ncc(C#N)c(OCC3(C)CCCC3)n2)CC1 [Example 58]
6.00 to 7.00 | > 8.00 | > 8.00 | 7.00 to 8.00 | > 8.00 | > 8.00 | Cn1cc(S(=O)(=O)N2CCC(Nc3ncc(C#N)c(O[C@@H]4CCC(F)(F)C[C@]4(C)O)n3)CC2)cn1 (relative stereo) [Example 7a, cis-4-((4,4-difluoro-2-hydroxy-2-methylcyclohexyl)oxy)-2-((1-((1-methyl-1H-pyrazol-4-yl)sulfonyl)piperidin-4-yl)amino)pyrimidine-5-carbonitrile]
6.00 to 7.00 | > 8.00 | 7.00 to 8.00 | ≤ 6.00 | 7.00 to 8.00 | 7.00 to 8.00 | N#Cc1cnc(Nc2ccc(S(N)(=O)=O)cc2)nc1OC1CCCCCC1O (single isomer, unassigned) [Example 22a]
6.00 to 7.00 | > 8.00 | 6.00 to 7.00 | 6.00 to 7.00 | 6.00 to 7.00 | 7.00 to 8.00 | CC1(NS(=O)(=O)c2ccc(Nc3ncc(Br)c(O[C@@H]4CCC[C@@H]4O)n3)cc2)COC1 (single isomer, unassigned) [Example 131a, cis-4-((5-bromo-4-((2-hydroxycyclopentyl)oxy)pyrimidin-2-yl)amino)-N-(3-methyloxetan-3-yl)benzenesulfonamide]
6.00 to 7.00 | > 8.00 | 6.00 to 7.00 | 6.00 to 7.00 | 6.00 to 7.00 | 7.00 to 8.00 | [2H]C([2H])([2H])NS(=O)(=O)c1ccc(Nc2ncc(CC)c(OC3CCCC3O)n2)cc1 (single isomer, unassigned) [Example 149a]
7.00 to 8.00 | > 8.00 | 7.00 to 8.00 | 6.00 to 7.00 | 7.00 to 8.00 | > 8.00 | NS(=O)(=O)c1ccc(Nc2ncc(C(F)(F)F)c(OC3CCCCC3O)n2)cc1 (single isomer, unassigned) [Example 111b]
6.00 to 7.00 | > 8.00 | 6.00 to 7.00 | 6.00 to 7.00 | 6.00 to 7.00 | 7.00 to 8.00 | O=S(=O)(NC1CC1)c1ccc(Nc2ncc(C(F)(F)F)c(OC3CCCC3O)n2)cc1 (single isomer, unassigned) [Example 107a]
≤ 6.00 | > 8.00 | 6.00 to 7.00 | ≤ 6.00 | 6.00 to 7.00 | 6.00 to 7.00 | CNS(=O)(=O)c1ccc(Nc2ncc(C#N)c(OC3CCC[C@H]3O)n2)cc1 (mixture of isomers) [Example 26]
6.00 to 7.00 | > 8.00 | 6.00 to 7.00 | 6.00 to 7.00 | 6.00 to 7.00 | 7.00 to 8.00 | CNS(=O)(=O)c1ccc(Nc2ncc(C(F)(F)F)c(OC3CCOCC3O)n2)cc1 (single isomer, unassigned) [Example 116a]
6.00 to 7.00 | > 8.00 | > 8.00 | 6.00 to 7.00 | > 8.00 | 7.00 to 8.00 | CC1(O)CCCC1Oc1nc(NC2CCN(S(=O)(=O)CC3CCOC3)CC2)ncc1C#N (single isomer, unassigned) [Example 40a]
7.00 to 8.00 | > 8.00 | > 8.00 | ≤ 6.00 | 6.00 to 7.00 | 7.00 to 8.00 | CNS(=O)(=O)N1CCC(Nc2ncc(C(F)(F)F)c(OC3CCCCCC3)n2)CC1 [Example 129]
